Source: US20180194762A1 (Pharmacyclics LLC, priority 2017, published 2018)
Where two headings read alike, the source gives them in different places.

Columns and labels:
Type in all cases: biochemical
Btk = molecular target: T1, Btk (Homo sapiens, UniProt Q06187); experiment: Btk in vitro inhibitory activity (one of Method A TR-FRET, Method B electrophoretic mobility shift, Method C radiometric filter binding)
T1 construct: purified from insect cells as a full-length construct containing a N-terminal 6X-His tag; His6 (N); made in house; host or cells: insect cells (Method C)
Outline: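 Three alternative formats were used. A radiometric filter-binding read used 8 nM full-length His-BTK with 0.2 mg/mL poly(Glu-Tyr) 4:1 (C); microfluidic separation of 1 μM FAM-peptide by 1 nM BTK gave IC50 from 12-point curves (B); TR-FRET at Km ATP, 0.5 nM Btk, gave Ki(app)-derived IC50 (A).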

TEC = molecular target: T2, TEC (Homo sapiens, UniProt P42680); experiment: Inhibition of a panel of kinases (in vitro HotSpot kinase assay, 33P-ATP, 1 μM ATP); details: for IC50: HotSpot kinase assay, 1 μM ATP; for TEC/Btk: ratio of TEC IC50 to Btk IC50 (selectivity)
T2 sequence (P42680 1-631): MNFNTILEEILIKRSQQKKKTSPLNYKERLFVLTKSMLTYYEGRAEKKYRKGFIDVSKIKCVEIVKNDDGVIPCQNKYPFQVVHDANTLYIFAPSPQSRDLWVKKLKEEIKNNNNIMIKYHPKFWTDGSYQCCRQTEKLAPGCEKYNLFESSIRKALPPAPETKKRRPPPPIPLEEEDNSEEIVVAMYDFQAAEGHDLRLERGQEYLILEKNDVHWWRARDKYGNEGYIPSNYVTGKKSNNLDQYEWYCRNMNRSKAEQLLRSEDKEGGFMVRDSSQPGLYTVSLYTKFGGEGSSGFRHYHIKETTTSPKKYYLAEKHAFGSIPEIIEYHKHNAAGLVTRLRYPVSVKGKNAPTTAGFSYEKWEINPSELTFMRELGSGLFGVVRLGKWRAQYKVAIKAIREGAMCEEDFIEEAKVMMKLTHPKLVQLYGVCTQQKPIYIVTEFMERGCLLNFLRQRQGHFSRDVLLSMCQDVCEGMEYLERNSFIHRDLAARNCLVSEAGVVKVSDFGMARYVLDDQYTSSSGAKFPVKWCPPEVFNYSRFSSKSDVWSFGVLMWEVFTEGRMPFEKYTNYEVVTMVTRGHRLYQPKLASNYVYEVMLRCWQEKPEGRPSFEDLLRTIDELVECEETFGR
Outline: (§1)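 Radiometric read-out: 33P transfer to a suitable substrate by each purified enzyme, ATP at 1 μM. Values are degree of inhibition.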

panel of kinases = molecular target: T3, panel of kinases (Homo sapiens, UniProt P51813); experiment: Inhibition of a panel of kinases (in vitro HotSpot kinase assay, 33P-ATP, 1 μM ATP), other kinases; details: BMX wild-type, read-out: BMX-WT IC50
T3 sequence (P51813 1-675): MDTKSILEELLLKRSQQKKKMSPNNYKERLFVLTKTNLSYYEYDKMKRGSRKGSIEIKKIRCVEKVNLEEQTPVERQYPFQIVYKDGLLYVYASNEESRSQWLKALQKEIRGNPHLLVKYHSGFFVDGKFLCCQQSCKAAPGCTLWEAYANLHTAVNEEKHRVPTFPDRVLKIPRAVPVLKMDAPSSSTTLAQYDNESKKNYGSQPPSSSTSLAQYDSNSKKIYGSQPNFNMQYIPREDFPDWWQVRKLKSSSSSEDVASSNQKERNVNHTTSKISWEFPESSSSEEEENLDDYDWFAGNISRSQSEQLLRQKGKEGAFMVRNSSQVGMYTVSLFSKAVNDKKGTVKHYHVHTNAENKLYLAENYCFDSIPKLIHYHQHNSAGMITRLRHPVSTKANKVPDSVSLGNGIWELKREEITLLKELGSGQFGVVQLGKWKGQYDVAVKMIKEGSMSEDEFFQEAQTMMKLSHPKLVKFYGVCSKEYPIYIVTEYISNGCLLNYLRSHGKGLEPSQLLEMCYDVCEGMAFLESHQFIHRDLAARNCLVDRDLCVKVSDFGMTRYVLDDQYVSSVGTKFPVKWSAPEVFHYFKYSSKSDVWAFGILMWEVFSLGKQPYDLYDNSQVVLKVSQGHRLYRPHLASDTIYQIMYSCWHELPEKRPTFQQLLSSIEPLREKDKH
Outline: as §1

[1] = wild-type Btk, read-out: Btk-WT IC50
[2] = method is one of A, B or C, not stated which, read-out: IC50 values against Btk

T1 sequence (Q06187 whole entry): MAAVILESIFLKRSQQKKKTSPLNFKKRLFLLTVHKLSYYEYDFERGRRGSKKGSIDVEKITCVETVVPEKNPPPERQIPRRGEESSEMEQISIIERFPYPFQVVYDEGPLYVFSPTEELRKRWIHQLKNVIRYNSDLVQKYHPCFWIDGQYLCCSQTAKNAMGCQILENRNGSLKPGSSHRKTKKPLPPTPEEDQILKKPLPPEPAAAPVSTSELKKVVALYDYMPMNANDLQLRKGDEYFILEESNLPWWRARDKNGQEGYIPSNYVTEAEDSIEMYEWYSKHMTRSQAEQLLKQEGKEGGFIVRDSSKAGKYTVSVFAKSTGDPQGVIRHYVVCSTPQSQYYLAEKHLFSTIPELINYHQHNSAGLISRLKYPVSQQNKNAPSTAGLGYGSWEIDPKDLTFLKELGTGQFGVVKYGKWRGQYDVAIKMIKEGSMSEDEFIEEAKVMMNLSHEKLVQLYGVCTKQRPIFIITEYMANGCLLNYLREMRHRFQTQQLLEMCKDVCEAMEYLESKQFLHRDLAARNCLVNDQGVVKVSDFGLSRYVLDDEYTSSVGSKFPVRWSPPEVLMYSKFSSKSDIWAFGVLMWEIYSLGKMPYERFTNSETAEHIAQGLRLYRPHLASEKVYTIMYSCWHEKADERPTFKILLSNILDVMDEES

IC50 (Btk; [1])	IC50 (TEC)	IC50 (panel of kinases)	IC50 (Btk; [2])	TEC/Btk (TEC)	SMILES
14.3 nM	3210 nM	3430 nM	–	–	CC(=O)N[C@@H]1CCN(c2n[nH]c3nccc(-c4ccc(CNC(=O)c5coc(C(C)C)n5)c(F)c4)c23)C1 [Example 360, N-[(4-{3-[(3R)-3-acetamidopyrrolidin-1-yl]-1H-pyrazolo[3,4-b]pyridin-4-yl}-2-fluorophenyl)methyl]-2-(propan-2-yl)-1,3-oxazole-4-carboxamide]
0.42 nM	403 nM	219 nM	< 10 nM	959	C=CC(=O)N1CC[C@@H](Nc2n[nH]c3nccc(-c4ccc(CNC(=O)c5ccn(C(C)(C)C)n5)c(F)c4)c23)C1 [Example 66, 1-tert-butyl-N-{[2-fluoro-4-(3-{[(3R)-1-(prop-2-enoyl)pyrrolidin-3-yl]amino}-1H-pyrazolo[3,4-b]pyridin-4-yl)phenyl]methyl}-1H-pyrazole-3-carboxamide]
> 10000 nM	> 10000 nM	> 10000 nM	–	–	CC(C)(C)c1nc(C(=O)NC(C)(C)c2ccc(-c3ccnc4[nH]nc(N[C@@H]5CCNC5)c34)cc2)no1 [Example 122, 5-tert-butyl-N-{2-[4-(3-{[(3R)-pyrrolidin-3-yl]amino}-1H-pyraozlo[3,4-b]pyridin-4-yl)phenyl]propan-2-yl}-1,2,4-oxadiazole-3-carboxamide]
3.62 nM	2460 nM	1910 nM	–	680	C=CC(=O)N1CC[C@@H](Nc2n[nH]c3nccc(-c4cccc(NC(=O)c5ccc(C(C)(C)C)cc5)c4C)c23)C1 [Compound 9, 4-tert-butyl-N-[2-methyl-3-(3-{[(3R)-1-(prop-2-enoyl)pyrrolidin-3-yl]amino}-1H-pyrazolo[3,4-b]pyridin-4-yl)phenyl]benzamide]
1.26 nM	4360 nM	4470 nM	–	–	CNC1CCN(c2n[nH]c3nccc(-c4ccc(CNC(=O)c5nc(C(C)(C)C)no5)c(F)c4)c23)C1 (stereo not shown) [Example 333, 3-tert-butyl-N-[(2-fluoro-4-{3-[3-(methylamino)pyrrolidin-1-yl]-1H-pyrazolo[3,4-b]pyridin-4-yl}phenyl)methyl]-1,2,4-oxadiazole-5-carboxamide]
> 10000 nM	> 10000 nM	> 10000 nM	–	–	C=CC(=O)N1CC(Nc2n[nH]c3nccc(-c4ccc(CNC(=O)c5ccc(C(C)(C)C)cc5)c(F)c4)c23)C1 [Example 106, 4-tert-butyl-N-{[2-fluoro-4-(3-{[1-(prop-2-enoyl)azetidin-3-yl]amino}-1H-pyrazolo[3,4-b]pyridin-4-yl)phenyl]methyl}benzamide]
0.0423 nM	9.02 nM	15.8 nM	–	–	C=CC(=O)N(C)[C@@H]1CCN(c2n[nH]c3nccc(-c4ccc(CNC(=O)c5nc(C(C)(C)C)no5)c(F)c4)c23)C1 [Example 347, 3-tert-butyl-N-{[2-fluoro-4-(3-{(3R)-3-[methyl(prop-2-enoyl)amino]pyrrolidin-1-yl}-1H-pyrazolo[3,4-b]pyridin-4-yl)phenyl]methyl}-1,2,4-oxadiazole-5-carboxamide]
10.4 nM	1710 nM	280 nM	–	164	CN(C)C(=O)N1CC[C@H](Nc2n[nH]c3nccc(-c4ccc(CNC(=O)c5noc(C(C)(C)C)n5)c(F)c4)c23)C1 [Example 113, 5-tert-butyl-N-{[4-(3-{[(3S)-1-(dimethylcarbamoyl)pyrrolidin-3-yl]amino}-1H-pyrazolo[3,4-b]pyridin-4-yl)-2-fluorophenyl]methyl}-1,2,4-oxadiazole-3-carboxamide]
225 nM	1320 nM	912 nM	–	6	C[C@H]1CC[C@@H](Nc2n[nH]c3nccc(-c4ccc(CNC(=O)c5cc(C(C)(C)C)on5)c(F)c4)c23)CN1 [Example 144, 5-tert-butyl-N-{[2-fluoro-4-(3-{[(3R,6S)-6-methylpiperidin-3-yl]amino}-1H-pyrazolo[3,4-b]pyridin-4-yl)phenyl]methyl}-1,2-oxazole-3-carboxamide]
68.2 nM	7940 nM	5390 nM	–	116	C=CC(=O)N1CC[C@H](Nc2n[nH]c3nccc(-c4ccc(CNC(=O)c5ccc(C(C)(C)C)cc5)c(F)c4)c23)C1 [Compound 44, (S)—N-(4-(3-((1-acryloylpyrrolidin-3-yl)amino)-1H-pyrazolo[3,4-b]pyridin-4-yl)-2-fluorobenzyl)-4-(tert-butyl)benzamide]
1.76 nM	55 nM	16 nM	–	31	C=CC(=O)N1CC[C@@H](Nc2n[nH]c3nccc(-c4ccc(CNC(=O)c5ccc(C)cc5)c(F)c4)c23)C1 [Compound 34, (R)—N-(4-(3-((1-acryloylpyrrolidin-3-yl)amino)-1H-pyrazolo[3,4-b]pyridin-4-yl)-2-fluorobenzyl)-4-methylbenzamide]
307 nM	5720 nM	5900 nM	–	–	CN(C)C(=O)N1CC[C@@H](Nc2n[nH]c3nccc(-c4ccc(CNC(=O)c5coc(C6CC6)n5)c(F)c4)c23)C1 [Example 329, 2-cyclopropyl-N-{[4-(3-{[(3R)-1-(dimethylcarbamoyl)pyrroli-din-3-yl]amino}-1H-pyrazolo[3,4-b]pyridin-4-yl)-2-fluorophenyl]methyl}-1,3-oxazole-4-carboxamide]
7.99 nM	344 nM	115 nM	–	–	C=CC(=O)N1CC[C@@H](Nc2n[nH]c3nccc(-c4ccc(CNC(=O)c5nn6c(c5C)OCCC6)c(F)c4)c23)C1 [Example 376, N-{[2-fluoro-4-(3-{[(3R)-1-(prop-2-enoyl)pyrrolidin-3-yl]amino}-1H-pyrazolo[3,4-b]pyridin-4-yl)phenyl]methyl}-3-methyl-6,7-dihydro-5H-pyrazolo[5,1-b][1,3]oxazine-2-carboxamide]
0.0732 nM	18.9 nM	39.2 nM	–	258	C=CC(=O)N1CC[C@@H](Oc2n[nH]c3nccc(-c4ccc(CNC(=O)c5noc(C(C)(C)C)n5)c(F)c4)c23)C1 [Example 272, 5-tert-butyl-N-{[2-fluoro-4-(3-{[(3R)-1-(prop-2-enoyl)pyrrolidin-3-yl]oxy}-1H-pyrazolo[3,4-b]pyridin-4-yl)phenyl]methyl}-1,2,4-oxadiazole-3-carboxamide]
0.792 nM	613 nM	312 nM	–	774	C=CC(=O)N1CCC[C@@H](Nc2n[nH]c3nccc(-c4ccc(C5(NC(=O)c6noc(C(C)(C)C)n6)CC5)cc4)c23)C1 [Example 270, 5-tert-butyl-N-{1-[4-(3-{[(3R)-1-(prop-2-enoyl)piperidin-3-yl]amino}-1H-pyrazolo[3,4-b]pyridin-4-yl)phenyl]cyclopropyl}-1,2,4-oxadiazole-3-carboxamide]
1.77 nM	1650 nM	1730 nM	< 10 nM	–	CC(C)(C)c1nc(C(=O)NCc2ccc(-c3ccnc4[nH]nc(N5CC[C@@H](N)C5)c34)cc2F)no1 [Example 108, N-[(4-{3-[(3R)-3-aminopyrrolidin-1-yl]-1H-pyrazolo[3,4-b]pyridin-4-yl}-2-fluorophenyl)methyl]-5-tert-butyl-1,2,4-oxadiazole-3-carboxamide]
